{"source": "paper PMC8870237", "about": "“Improved Multimodal Tumor Necrosis Imaging with IRDye800CW-DOTA Conjugated to an Albumin-Binding Domain” (Cancers, 2022)", "key": {"MCF7-Luc2 tumors": {"system": "MCF7-Luc2 tumors", "assay": "Tumor uptake in doxorubicin- or saline-treated MCF7-Luc2 tumor-bearing mice", "assay_type": "in vivo, mouse", "conditions": "24 h p.i., ±SEM", "experimental": "(§1) The quadruple modality imaging procedure is illustrated in Figure S21. The tumor-bearing mice were injected with [^111In]3 (20 MBq, 2 nmol) in 200 µL PBS into the tail vein. The following day, the mice fasted for four hours before they were injected with [^18F]FDG (10 MBq, 200 µL) in PBS. At 24 h p.i. of [^111In]3 and 1 h p.i. of [^18F]FDG, FLI imaging was performed with a 730 nm excitation and 760 nm emission filter for 400 ms with 4 × 4 binning. Then, the mice received an intraperitoneal injection of D-luciferin (150 mg/kg) maintaining the position of the mice in the bed unaltered. During the onset of the bioluminescence signal, PET/SPECT imaging was performed of the tumors with a 2 cm axial field of view over a total scan time of 30 min, followed by a 2 min full-body CT. Finally, BLI imaging was performed with an open filter for 400 ms with 4 × 4 binning. Imaging was performed under isoflurane anesthesia whilst maintaining the body temperature constant.\nSix mice were inoculated bilaterally with MCF7-Luc2 cells (3.0 × 10^6), suspended in 30 µL PBS:Matrigel (1:1; v/v). On days 14, 16, and 18 after inoculation, the tumor-bearing mice received either doxorubicin (5 mg/kg, Janssen Pharmaceuticals, Beerse, Belgium) or a saline solution via i.v. injection. On days 21 and 22 after inoculation, the mice underwent the FLI, BLI, and PET/SPECT/CT imaging procedure (vide supra).\n(§2) After the final imaging experiments, the mice were sacrificed by cervical dislocation, tumors and organs were collected, weighted, and activity was accurately quantified by γ-counting to determine radioactivity uptake in the percentage of injected dose per gram (%ID/g). After γ-counting, the tumors were frozen in liquid nitrogen and stored at −80 °C overnight. Adjacent cryosections (10 µm) were prepared of the tumor centers for autoradiography. The sections were stored at −20 °C for the radioactivity to decay, before 800 nm fluorescence imaging and histochemical dead cell staining."}, "EMT6-Luc2 tumors": {"system": "EMT6-Luc2 tumors", "assay": "Tumor uptake in EMT6-Luc2 tumor-bearing mice", "assay_type": "in vivo, mouse", "conditions": "untreated, 24 h p.i., ±SEM", "experimental": "as §1, with “constant. […]” for “constant.”\nas §2, with “After γ-counting, the tumors were frozen in liquid nitrogen and stored at −80 °C overnight. Adjacent cryosections (10 µm) were prepared of the tumor centers for autoradiography.” left out"}, "4T1-Luc2 cells": {"system": "4T1-Luc2 cells", "assay": "In vitro dead/alive cell binding assay (fluorescence and γ-counting)", "assay_type": "cell-based, mouse", "conditions": "indium-111 labeled, 100 nM, 2.5 MBq/nmol, EtOH-killed or alive 4T1-Luc2 cells, γ-counting", "experimental": "The 4T1-Luc2 cells were cultured in RPMI-1640 medium containing 10% fetal bovine, penicillin (100 U/mL), and streptomycin ([…]) 37 °C under a humidified atmosphere with 5% CO2. The cells were seeded in 24 well plates (1 × 10^5 cells per well). The next day, the cells were killed with EtOH (70%, 50 μL) or kept alive and incubated for 30 min at 37 °C with 100 nM of the NACAs in culturing medium. The plate was then imaged on an Odyssey (Li-Cor, 800 nm laser intensity 5.0).\nSimilarly, these killed and alive cells were incubated with the indium-111 labeled NACAs (100 nM, 2.5 MBq/nmol) in culturing medium. The cells were washed with PBS and collected with NaOH (1.0 M) for γ-counting. These experiments were performed as triplicates."}, "[1]": {"assay": "In vivo stability (radio-HPLC of urine 1 h after injection)", "parameters": "species or system mouse", "conditions": "mice, i.v., 1 h p.i.", "description": "After an hour, the mice were sacrificed by cervical dislocation and blood and urine were collected, which were frozen in liquid nitrogen directly after extraction. […] The supernatant was collected and analyzed by radio-HPLC (Method-D)."}}, "data": [{"smiles": "CC1(C)C(=CC=C2CCCC(C=CC3=[N+](CCCCCC(=O)NCCCC[C@H](NC(=O)CCCc4ccc(I)cc4)C(=O)NCc4ccc(CNC(=O)CN5CCN(CC(=O)[O-])CCN(CC(=O)[O-])CCN(CC(=O)[O-])CC5)cc4)c4ccc(S(=O)(=O)O)cc4C3(C)C)=C2Oc2ccc(S(=O)(=O)O)cc2)N(CCCCS(=O)(=O)O)c2ccc(S(=O)(=O)O)cc21.[111In+3]", "note": "[[^111In]3]", "values": [{"measurement": "tumor uptake of [111In]3", "setting": "MCF7-Luc2 tumors; after doxorubicin treatment (5 mg/kg i.v., 3 injections)", "value": "2.25 ± 0.16", "unit": "%ID/g"}, {"measurement": "tumor uptake of [111In]3", "setting": "MCF7-Luc2 tumors; after saline treatment (control)", "value": "1.74 ± 0.08", "unit": "%ID/g"}, {"measurement": "tumor uptake of [111In]3", "setting": "EMT6-Luc2 tumors", "value": "2.81 ± 0.21", "unit": "%ID/g"}, {"measurement": "dead/alive cell binding, radioactivity", "setting": "4T1-Luc2 cells", "value": "increased as compared to [^111In]1"}, {"measurement": "in vivo stability, remained stable", "setting": "[1]", "value": "> 95", "unit": "%"}]}]}
